The test system of series [1] is Bovine pulmonary arterial endothelial cells. Nature of the series: Nucleic acid binding after RNase and DNase on methanol-fixed eukaryotic cells (Example 38). It counts as cell-based. The protocol:
(§1) Bovine pulmonary arterial endothelial cells were grown in media for one day after plating and then fixed ten minutes in 100% methanol at −20° C. Cells were washed 3×5 minutes in PBT (0.05M phosphate-buffered saline (PBS) containing 0.1% Triton X-100) and then treated with RNase (from Roche, at 1:500 dilution) or DNase (from Promega, at 1:100 dilution) for 2 hours at 37° C. Cells were washed again for 3×5 minutes in PBT and then labeled with Compound 6 at 687 nM concentration for 20 minutes. Cells were washed 3×10 minutes in PBS and mounted on microscope slides in ProLong antifade mounting medium. After the mountant had hardened, slides were examined on a Nikon Eclipse 800 upright fluorescent microscope and imaged with a FITC filter set, a Princeton Instrument MicroMax cooled CCD camera, and Universal Imaging MetaMorph imaging software. […] See, FIG. 4.

Series [2] has the same test system. Kind of series: Nucleic acid binding on RNase and DNase treated formaldehyde-fixed eukaryotic cells (Example 39). Particulars: Compound 6 687 nM, Compound 19 1 μM. The format is cell-based. On the procedure:
as §1, with “fixed fifteen” for “fixed ten”, “in 4% paraformaldehyde.” for “in 100% methanol at −20° C.”, “1:100 dilution), or both” for “1:100 dilution)”, “concentration or Compound 19 at 1 μM concentration in PBS” for “concentration”, “mounting medium (Molecular Probes, Inc.).” for “mounting medium.”, “FIG. 5.” for “FIG. 4.”

Another series deals with RNA versus DNA. Kind of series: Screening of fluorescence properties and relative fluorescence enhancement with RNA versus DNA (Table 3). It counts as binding. Particulars: for Fluorescence Enhancement Ratio (RNA/DNA): fluorescence enhancement when associated with RNA to that when associated with DNA.
Series [3] relates to Bovine pulmonary arterial endothelial cells. Nature of the series: Nucleic acid binding in methanol-fixed eukaryotic cells (Example 42). It counts as cell-based. The protocol:
Bovine pulmonary arterial endothelial cells were grown in media for one day after plating on coverslips and then fixed 10 minutes in −20° C. 100% methanol. Cells were washed 3×5 minutes 50 mM phosphate buffered saline (PBS), pH 7.3. Cells were labeled with Compound 11 at 5 μM, 1 μM, or 500 nM concentration in PBS for 20 minutes, washed 3×10 minutes in PBS, and mounted in ProLong antifade mountant (Molecular Probes, Inc.). Cells were labeled with Compound 6 at 500 nM in PBS for 20 minutes. After the mountant had hardened, slides were examined on a Nikon Eclipse 800 upright fluorescent microscope and imaged with a blue-green filter set, a Princeton Instruments MicroMax cooled CCD camera, and Universal Imaging MetaMorph imaging software. Comparison of emission wavelength was made using a Zeiss 510 confocal microscope utilizing a META spectral unmixing system. […] Optimal labeling for both compounds appeared to be about […]. […] See, FIG. 6.

Series [4] shares this test system. Kind of series: Nucleic acid binding in live eukaryotic cells followed by fixing of cells (Example 40). It counts as cell-based. On the procedure:
Bovine pulmonary arterial endothelial cells were grown in media for one day after plating and then labeled before fixing with 687 nM Compound 6 for 20 minutes. Some cells were rinsed in media and separated for live imaging. The other cells were rinsed twice with media and then fixed in 4% paraformaldehyde for 15 minutes at room temperature, 0.5% glutaraldehyde for 5 minutes at room temperature, or 100% methanol for 10 minutes at −20° C. Cells were washed 3×10 minutes in phosphate-buffered saline and mounted on microscope slides in ProLong antifade mounting medium (Molecular Probes, Inc.). After the mountant had hardened, slides were examined on a Nikon Eclipse 800 upright fluorescent microscope and imaged with a FITC filter set, a Princeton Instrument MicroMax cooled CCD camera, and Universal Imaging MetaMorph imaging software. […] Fixation with either paraformaldehyde or glutaraldehyde removed all mitochondrial labeling. Nucleolar label remained, but nuclear label increased. […] Methanol-fixation had good nucleolar labeling, with only a slight increase in nuclear labeling. All mitochondrial labeling was removed. Cytoplasmic label increased slightly, but not nearly to the extent seen with other fixation. Results generally indicate that methanol-fixation is the recommended fixation technique.

Series [5] concerns Gram-positive (Staphylococcus aureus) and Gram-negative (Eshcerichia coli) bacteria. Kind of series: Rifampicin-depletion of bacterial RNA, flow cytometry and microplate reader (Example 37). Particulars: for fluorescent signal of rifampicin treated versus untreated bacteria: 25 μg/mL rifampicin one hour, compound 0.25, 0.5 or 1 μM, 10-15 minutes. The format is cell-based. The protocol: Gram-positive (Staphylococcus aureus) and Gram-negative (Eshcerichia coli) bacteria in growth medium were treated with 25 μg/mL rifampicin for one hour. Treated and untreated bacteria were counted, diluted to 1×10^7 bacteria/mL in 0.85% NaCl, and 1 mL aliquots incubated with 0.25 μM, 0.5 μM, or 1 μM Compound 6 or Compound 9 for 10-15 minutes protected from light. The samples were analyzed by flow cytometry and then 100 μL volumes were transferred to a microplate in triplicate and analyzed by a microplate reader. The fluorescence intensity was corrected against the dye in solution, which was weakly fluorescent.

For series [6], the system named is Bovine pulmonary arterial endothelial cells. Nature of the series: Cell permeability and nucleic acid label pattern with a concentration series in live cells (Example 43). It counts as cell-based. The protocol: Bovine pulmonary arterial endothelial cells were grown in media for one day after plating on coverslips, then labeled with 50 nM MitoTracker Red CMXRos (Molecular Probes, Inc., M7512) in Hank's balanced salt solution (HBSS) with HEPES for general mitochondrial labeling. After washing in HBSS, cells were then labeled with Compound 1 at various concentrations ranging from 100 nM up to 10 μM in media for 20 minutes at 37°. Cells were washed well with HBSS. Coverslips were examined mounted in warm HBSS on a Nikon Eclipse 800 upright fluorescent microscope and imaged with a FITC filter set, a Princeton Instruments MicroMax cooled CCD camera, and Universal Imaging MetaMorph imaging software. […] The mtDNA signal was localized within mitochondria, as evidenced by MitoTracker Red labeling.

Setting [7] is: methanol fixed cells, cytoplasm, nucleus and nucleolus (FIG. 4).
Where [8] appears, read: methanol-fixed, compound 687 nM.
Setting [9] is: methanol-fixed, compound 687 nM, by eye.

Structures are written as SMILES.

`N=C(N)c1ccc(-c2cc3ccc(C(=N)N)cc3[nH]2)cc1` [DAPI, reference compound]: in series [1] (control to test the activity of the DNase, printed as treated with RNase), the “label intensity of DNA label control after nuclease treatment” value is recorded as “significant decline in label intensity”.
`COc1ccc2c(c1)N(c1ccccc1)C(N1CCN(C3=C/C(=C\c4sc5ccccc5[n+]4C)c4ccc(OC)cc4N3c3ccccc3)CC1)=C/C2=C\c1sc2ccccc2[n+]1C.[I-].[I-]` [Compound 19]: in series [2], the “cytoplasmic label after DNase” value is on record as “not reduced at all”, the “cytoplasmic label after RNase” value is recorded as “not reduced at all”, the “labeling of nucleoli after RNase” value is “eliminated” and the “nuclear labeling after DNase” value is “not DNase”. Further, in series [2], the “nuclear labeling after RNase” value was “significantly reduced with RNase” and the “nucleolar intensity after DNase” value is recorded as “significantly reduced”. In the series on RNA versus DNA, the “Fluorescence Enhancement Ratio (RNA/DNA)” value stood at 4.9.
Take `C[n+]1c(/C=C2\C=C(N3CCN(C4=C/C(=C\c5sc6ccccc6[n+]5C)c5ccccc5N4c4ccccc4)CC3)N(c3ccccc3)c3ccccc32)sc2ccccc21.[Cl-].[Cl-]` [Compound 6]: in series [2], the “cytoplasmic label after DNase” value was “significantly reduced by both RNase and DNase”; the “cytoplasmic label after RNase” value is “significantly reduced by both RNase and DNase”; the “labeling of nucleoli after RNase” value is listed as “eliminated”; the “nuclear labeling after DNase” value is “significantly reduced by both RNase and DNase”. In addition, in series [2], the “nuclear labeling after RNase” value was “significantly reduced by both RNase and DNase”; the “nucleolar intensity after DNase” value is given as “significantly reduced”. For the same molecule, the “concentration of peak emission in detection of intracellular nucleic acid” value in series [3] (FIG. 6) turned out to be 500 nM. Further, the optimal labeling concentration entry in series [3] (methanol-fixed cells) is “about 500 μM”. Further, the staining pattern result in series [3] (methanol-fixed, Compound 11 5 μM, 1 μM or 500 nM, Compound 6 500 nM, 20 minutes) is “strong nucleolar and cytoplasmic labeling, with dimmer nuclear labeling, indicating selective RNA staining”. In addition, the “Fluorescence Enhancement Ratio (RNA/DNA)” value with RNA versus DNA turned out to be 7.0. Besides, in series [4] (687 nM, 20 minutes, live imaging), the “labeling pattern in live cells” value is “strong nucleolar label, strong punctate labeling in mitochondria consistent with mtDNA, and dimmer ubiquitous mitochondrial labeling”. For the same molecule, the “labeling pattern after fixation with paraformaldehyde or glutaraldehyde” value in series [4] (labeled live at 687 nM, then 4% paraformaldehyde or 0.5% glutaraldehyde) is given as “removed all mitochondrial labeling. Nucleolar label remained, but nuclear label increased. General cytoplasmic labeling also increased significantly”. The “labeling pattern after methanol-fixation” value in series [4] (labeled live at 687 nM, then 100% methanol 10 minutes −20° C.) was “good nucleolar labeling, with only a slight increase in nuclear labeling. All mitochondrial labeling was removed. Cytoplasmic label increased slightly”. In addition, in series [5], the “fluorescent signal of rifampicin treated versus untreated bacteria” value is on record as “decrease in fluorescent signal after removal of mRNA”. In addition, the “signal intensity on RNA versus DNA in S. aureus cells with and without rifampicin” value in series [5] (S. aureus, compound 0.25, 0.5 and 1 μM) is reported as “stronger signal intensity when bound to RNA”. For the same molecule, in series [1] (setting [7]), the “signal intensity of DNase treated cells” value is reported as “no decrease in signal intensity” and the “signal intensity of RNase treated cells” value was “significant reduction in signal intensity”. Further, in series [1] (setting [8]), the “nuclear labeling after DNase” value is listed as “not DNase” and the “nuclear labeling after RNase” value is “significantly reduced by RNase”. For the same molecule, the “nucleolar intensity after DNase” value in series [1] (methanol-fixed, compound 687 nM, DNase 2 hours 37° C.) is listed as “did not significantly affect”. For the same molecule, in series [1] (methanol-fixed, compound 687 nM, RNase 2 hours 37° C.), the “labeling of nucleoli after RNase” value is reported as “eliminated”. For the same molecule, in series [1] (setting [9]), the “cytoplasmic label after DNase” value is listed as “not DNase” and the “cytoplasmic label after RNase” value is reported as “reduced by RNase”.
Consider `C[n+]1c(/C=C2\C=C(N(CCC[N+](C)(C)C)CCC[N+](C)(C)C)N(CCCCCCCCCCN3C(N(CCC[N+](C)(C)C)CCC[N+](C)(C)C)=C/C(=C\c4sc5ccccc5[n+]4C)c4ccccc43)c3ccccc32)sc2ccccc21.Cl.Cl` [Compound 13], for which the “Fluorescence Enhancement Ratio (RNA/DNA)” value with RNA versus DNA is given as 2.5.
On to `CN1/C(=C\c2ccn(-c3ccccc3)/c(=N\N3CCN(/N=c4/cc(/C=C5/Sc6ccccc6N5C)c5ccccc5n4-c4ccccc4)CC3)c2)Sc2ccccc21` [Compound 25], for which, in the series with RNA versus DNA, the “Fluorescence Enhancement Ratio (RNA/DNA)” value came to 5.6.
In the case of `C[n+]1c(/C=C2\C=C(N3CCNCCN(C4=C/C(=C\c5sc6ccccc6[n+]5C)c5ccccc5N4c4ccccc4)CCNCC3)N(c3ccccc3)c3ccccc32)sc2ccccc21.[Cl-].[Cl-]` [Compound 15], the “Fluorescence Enhancement Ratio (DNA/RNA)” value in the series with RNA versus DNA (fluorescence enhancement when associated with DNA to that when associated with RNA) worked out at 3.7.
As for `C[n+]1c(/C=C2\C=C(SCCCCCCCCCSC3=C/C(=C\c4sc5ccccc5[n+]4C)c4ccccc4N3c3ccccc3)N(c3ccccc3)c3ccccc32)sc2ccccc21` [Compound 1], in series [6] (20 minutes at 37°), the “staining pattern at 1 μM” value is recorded as “nuclear labeling was seen as well as mtDNA”; the “staining pattern at 3 μM or higher” value was “mtDNA labeling was lost, replaced with ubiquitous cytoplasmic labeling and strong nuclear labeling”. For the same molecule, the “staining pattern at 100 nM to 500 nM” value in series [6] (20 minutes at 37°, MitoTracker Red co-label) was “mitochondrial DNA (mtDNA), with no nuclear label, or cytoplasmic background”. Besides, the “concentration at which mitochondrial morphology was disrupted” value in series [6] (as evidenced with MitoTracker Red) was at least 3 μM. In addition, the “Fluorescence Enhancement Ratio (RNA/DNA)” value in the series with RNA versus DNA amounted to 1.0.
On to `CN1/C(=C\c2c/c(=N/N3CCN(/N=c4/cc(/C=C5/Sc6ccccc6N5C)c5ccccc5n4-c4ccccc4)CC3)n(-c3ccccc3)c3ccccc23)Sc2ccccc21` [Compound 9], for which, in the series with RNA versus DNA, the “Fluorescence Enhancement Ratio (RNA/DNA)” value amounted to 1.7. In addition, the “fluorescent signal of rifampicin treated versus untreated bacteria” value in series [5] is “decrease in fluorescent signal after removal of mRNA”.
Turning to `C[n+]1c(/C=C2\C=C(Sc3nnc(SC4=C/C(=C\c5sc6ccccc6[n+]5C)c5ccccc5N4c4ccccc4)s3)N(c3ccccc3)c3ccccc32)sc2ccccc21.[Cl-].[Cl-]` [Compound 7], the “Fluorescence Enhancement Ratio (RNA/DNA)” value in the series on RNA versus DNA was found to be 2.3.
Same read-out and setting: the same measure for `C[n+]1c(/C=C/C=C2/C=CN(c3ccccc3)C(N3CCN(C4=C/C(=C\C=C\c5sc6ccccc6[n+]5C)C=CN4c4ccccc4)CC3)=C2)sc2ccccc21` [Compound 18]: 1.3; for `CN1/C(=C\c2c/c(=N/C3CCC(/N=c4/cc(/C=C5/Sc6ccccc6N5C)c5ccccc5n4-c4ccccc4)CC3)n(-c3ccccc3)c3ccccc23)Sc2ccccc21` (centres unmarked) [Compound 8]: 4.9.

Values taken from patent publication US8242251B2, “Unsymmetrical cyanine dimer compounds and their application” (Life Technologies Corporation, priority 2003, dated 2012).
